In patent EP1513800B1, “N-BENZOYLUREIDOCINNAMATE DERIVATIVES, METHOD FOR PRODUCTION AND USE THEREOF” (Sanofi-Aventis Deutschland GmbH, priority 2002, dated 2003):

System: Humane Glykogenphosphorylase a
Assay: Glycogen phosphorylase a activity test (reverse direction, release of inorganic phosphate from glucose-1-phosphate)
Type: biochemical
Settings: 10 µM test substance; in vitro; 40 min at room temperature; absorbance at 820 nm; duplicate determinations
Description: Glykogenphosphorylase a Aktivitätstest
Der Effekt von Verbindungen auf die Aktivität der aktiven Form der Glykogenphosphorylase (GPa) wurde in der umgekehrten Richtung, durch Verfolgen der Glykogensynthese aus Glukose-1-Phosphat an Hand der Bestimmung der Freisetzung von anorganischem Phosphat, gemessen. […] Prüfsubstanzen wurden als 10 mM Lösung in DMSO zubereitet und auf 50 µM mit Pufferlösung T verdünnt. Zu 10 µl dieser Lösung wurden 10 µl 37,5 mM Glukose, gelöst in Pufferlösung T und 5 mg/mL Glykogen, sowie 10 µl einer Lösung von humaner Glykogenphosphorylase a (10 µg Protein/ml) und 20 µl Glukose-1-Phosphat, 2,5 mM zugegeben. Der basale Wert der Glykogenphosphorylase a Aktivität in Abwesenheit von Prüfsubstanz wurde durch Zugabe von 10 µl Pufferlösung T (0,1 % DMSO) bestimmt. […] Zur Bestimmung der Hintergrundsabsorption wurde in einem separaten Ansatz die Stop-Lösung unmittelbar nach Zugabe der Glukose-1-Phosphatlösung zugegeben. Dieser Test wurde mit einer Konzentrationen von 10 µM der Prüfsubstanz durchgeführt, um die jeweilige Hemmung der Glykogenphosphorylase a in vitro durch die Prüfsubstanz zu bestimmen. Tabelle 2: Biologische Aktivität

Row | SMILES | % Inhibition bei 10 µM [%]
1 | O=C(O)/C=C/c1ccccc1NC(=O)NC(=O)c1cc(F)c(F)cc1Cl [compound 2, 3-{2-[3-(2-Chloro-4,5-difluorobenzoyl)-ureido]-phenyl}-acrylsäure] | 101
2 | COC(=O)C=Cc1cc(C(=O)O)ccc1NC(=O)NC(=O)c1cc(F)c(F)cc1Cl [compound 12, 4-[3-(2-Chloro-4,5-difluorobenzoyl)-ureido]-3-(2-methoxycarbonyl-vinyl)-benzoesäure] | 104
